The source of these data is patent publication EP0980535B1, “PHOTOCHROMIC COMPOSITIONS, PHOTOCHROMIC COMPOUNDS (CO)POLYMER MATRICES” (Corning S.A., priority 1997, dated 1998).

This series in a line: Photochromic properties of the compound in the (co)polymer matrix under xenon lamp exposure. It counts as physicochemical. The note with it: for λmax (nm): same conditions as compound (I): 0.05% by weight in matrix; for T0 (%) / DO induced: same conditions as compound (I); for DO induced: xenon lamp (40.000 lux); for color exhibited: color of the photochromic compound. On the procedure: The matrix is based on a short-chain (meth)acrylate difunctional monomer and a long-chain alkenic difunctional monomer. Used at 0.05% by weight within the matrix (conditioned under 2 mm thickness), the compound has led to the results shown in the Table below.
Compounds C1, C2, C3, other naphthopyrans according to the application WO-A-94 22850, are identified by their developed formula in the Example part of the text. All compounds (II), C1, C2, C3 were tested under the same conditions as those indicated above with reference to compound (I).
The half-time of fading : t1/2, expressed in seconds is specified below for each one of the compounds. This parameter characterizes the kinetics of the return to the initial state (after darkening)(see its exact definition given earlier in the present text with reference to the Table grouping the properties of compound (I)).

The mark [1] stands for this setting: 0.05% by weight within the matrix, 2 mm thickness.
The mark [2] stands for this setting: optical density after minus before exposure under a xenon lamp (40.000 lux), 0.05% by weight in matrix, 2 mm.
Where [3] appears, read: transmission before exposure, 0.05% by weight in matrix, 2 mm.

The compound `COc1ccc(C2(c3ccc(C(F)(F)F)cc3)C=Cc3c(cc(N4CCOCC4)c4ccccc34)O2)cc1` (centres unmarked) [Compound C2, reference compound] showed a DO induced of 1.60. Besides, the “λmax (nm)” value (2 mm) was 430 nm. The “T0 (%)” value (transmission before exposure) worked out at 68%.

Consider `COc1ccc(C2(c3ccc(N(C)C)cc3)C=Cc3c(C)cc4c(OC)cc(OC)cc4c3O2)cc1` (centres unmarked) [Compound (I), 2-(p-dimethylaminophenyl)-2-(p-methoxyphenyl)-5-methyl-7,9-dimethoxy-[2H]-naphtho[1,2-b]pyran], for which the color exhibited entry is “violet”. Under setting [1], the “λmax 1” value worked out at 489 nm and the “λmax 2” value amounted to 588 nm. In addition, under setting [2], the “DOinduced** at 489 nm” value is 0.58 and the “DOinduced** at 588 nm” value is given as 0.94. Besides, under setting [3], the “T0* at 489 nm” value came out at 85% and the “T0* at 588 nm” value was found to be 86%.

For the compound `COc1ccc(C2(c3ccccc3)C=Cc3c(cc(N4CCOCC4)c4ccccc34)O2)cc1` (centres unmarked) [Compound (II), 3-(p-methoxyphenyl)-3-phenyl-6-morpholino-3H-naphtho-[2,1-b]pyran], the color exhibited entry is recorded as “yellow” and the DO induced was found to be 1.65. The “λmax (nm)” value (2 mm) was determined as 439 nm. For the same compound, under “transmission before exposure”, the “T0 (%)” value was 79%.

Regarding `COc1ccc(C2(c3ccccc3)C=Cc3c(cc(N4CCCCC4)c4ccccc34)O2)cc1` (centres unmarked) [Compound C3, reference compound], the DO induced is on record as 1.77. Besides, the “λmax (nm)” value (2 mm) is recorded as 430 nm. Where the note is “transmission before exposure”, the “T0 (%)” value was determined as 79%.

`COc1ccc(C2(c3ccc(OC)cc3)C=Cc3c(cc(N4CCOCC4)c4ccccc34)O2)cc1` [Compound C1, reference compound] showed a DO induced of 1.37. Besides, under “2 mm”, the “λmax (nm)” value was 456 nm. Moreover, where the note is “transmission before exposure”, the “T0 (%)” value is recorded as 74%.
